According to PubChem BioAssay AID1259407 (Chemical Carcinogenesis Research Information System (CCRIS), 2018):
Activity calls are given as the source filed them. The rule behind the calls is not given here.

Tested on: CCRIS mutagenicity, Ames/micronucleus/aberration tests
Assay: CCRIS mutagenicity studies
[1] = Test System: AMES SALMONELLA TYPHIMURIUM, Strain/Indicator: TA97, Metabolic Activation: HAMSTER, LIVER, S-9, AROCLOR 1254 (10 OR 30%), Method: PREINCUBATION
[2] = Test System: AMES SALMONELLA TYPHIMURIUM, Strain/Indicator: TA97, Metabolic Activation: NONE, Method: PREINCUBATION
[3] = Test System: AMES SALMONELLA TYPHIMURIUM, Strain/Indicator: TA97, Metabolic Activation: RAT, LIVER, S-9, AROCLOR 1254 (10 OR 30%), Method: PREINCUBATION
[4] = Test System: AMES SALMONELLA TYPHIMURIUM, Strain/Indicator: TA98, Metabolic Activation: HAMSTER, LIVER, S-9, AROCLOR 1254 (10 OR 30%), Method: PREINCUBATION
[5] = Test System: AMES SALMONELLA TYPHIMURIUM, Strain/Indicator: TA98, Metabolic Activation: NONE, Method: PREINCUBATION
[6] = Test System: AMES SALMONELLA TYPHIMURIUM, Strain/Indicator: TA98, Metabolic Activation: NONE, Method: STANDARD PLATE
[7] = Test System: AMES SALMONELLA TYPHIMURIUM, Strain/Indicator: TA98, Metabolic Activation: RAT, LIVER, S-9, AROCLOR 1254 (10 OR 30%), Method: PREINCUBATION
[8] = Test System: AMES SALMONELLA TYPHIMURIUM, Strain/Indicator: TA100, Metabolic Activation: HAMSTER, LIVER, S-9, AROCLOR 1254 (10 OR 30%), Method: PREINCUBATION
[9] = Test System: AMES SALMONELLA TYPHIMURIUM, Strain/Indicator: TA100, Metabolic Activation: NONE, Method: PREINCUBATION
[10] = Test System: AMES SALMONELLA TYPHIMURIUM, Strain/Indicator: TA100, Metabolic Activation: NONE, Method: STANDARD PLATE
[11] = Test System: AMES SALMONELLA TYPHIMURIUM, Strain/Indicator: TA100, Metabolic Activation: RAT, LIVER, S-9, AROCLOR 1254 (10 OR 30%), Method: PREINCUBATION
[12] = Test System: AMES SALMONELLA TYPHIMURIUM, Strain/Indicator: TA100, Metabolic Activation: RAT, LIVER, S-9, AROCLOR 1254, Method: STANDARD PLATE
[13] = Test System: AMES SALMONELLA TYPHIMURIUM, Strain/Indicator: TA1535, Metabolic Activation: HAMSTER, LIVER, S-9, AROCLOR 1254 (10 OR 30%), Method: PREINCUBATION
[14] = Test System: AMES SALMONELLA TYPHIMURIUM, Strain/Indicator: TA1535, Metabolic Activation: NONE, Method: PREINCUBATION
[15] = Test System: AMES SALMONELLA TYPHIMURIUM, Strain/Indicator: TA1535, Metabolic Activation: RAT, LIVER, S-9, AROCLOR 1254 (10 OR 30%), Method: PREINCUBATION
[16] = Test System: AMES SALMONELLA TYPHIMURIUM, Strain/Indicator: TA1537, Metabolic Activation: NONE, Method: STANDARD PLATE
[17] = Test System: AMES SALMONELLA TYPHIMURIUM, Strain/Indicator: TA97, Metabolic Activation: HAMSTER, LIVER, S-9, AROCLOR 1254 (10%), Method: PREINCUBATION
[18] = Test System: AMES SALMONELLA TYPHIMURIUM, Strain/Indicator: TA97, Metabolic Activation: RAT, LIVER, S-9, AROCLOR 1254 (10%), Method: PREINCUBATION
[19] = Test System: AMES SALMONELLA TYPHIMURIUM, Strain/Indicator: TA100, Metabolic Activation: RAT, LIVER, S-9, AROCLOR 1254 (10%), Method: PREINCUBATION
[20] = Test System: AMES SALMONELLA TYPHIMURIUM, Strain/Indicator: TA1535, Metabolic Activation: HAMSTER, LIVER, S-9, AROCLOR 1254 (10%), Method: PREINCUBATION

Q: `CC(=O)O[C@]1(C(C)=O)CC[C@H]2[C@@H]3C[C@H](C)C4=CC(=O)CC[C@]4(C)[C@H]3CC[C@@]21C` was tested. Which mutagenic call [1] did it give?
A: inactive; negative

Q: What about the mutagenic call [2] of the same molecule?
A: inactive; negative

Q: And the mutagenic call [3]?
A: inactive; negative

Q: And the mutagenic call [4]?
A: inactive; negative

Q: What about the mutagenic call [5] of the same molecule?
A: inactive; negative

Q: What about the mutagenic call [6] of the same molecule?
A: inactive; negative

Q: And the mutagenic call [7]?
A: inactive; negative

Q: And the mutagenic call (Test System: AMES SALMONELLA TYPHIMURIUM, Strain/Indicator: TA98, Metabolic Activation: RAT, LIVER, S-9, AROCLOR 1254, Method: STANDARD PLATE)?
A: inactive; negative

Q: What about the mutagenic call [8] of the same molecule?
A: inactive; negative

Q: And the mutagenic call [9]?
A: inactive; negative

Q: What about the mutagenic call [10] of the same molecule?
A: inactive; negative

Q: What about the mutagenic call [11] of the same molecule?
A: inactive; negative

Q: What about the mutagenic call [12] of the same molecule?
A: inactive; negative

Q: What about the mutagenic call [13] of the same molecule?
A: inactive; negative

Q: And the mutagenic call [14]?
A: inactive; negative

Q: And the mutagenic call (Test System: AMES SALMONELLA TYPHIMURIUM, Strain/Indicator: TA1535, Metabolic Activation: NONE, Method: STANDARD PLATE)?
A: inactive; negative

Q: And the mutagenic call [15]?
A: inactive; negative

Q: What about the mutagenic call (Test System: AMES SALMONELLA TYPHIMURIUM, Strain/Indicator: TA1535, Metabolic Activation: RAT, LIVER, S-9, AROCLOR 1254, Method: STANDARD PLATE) of the same molecule?
A: inactive; negative

Q: What about the mutagenic call [16] of the same molecule?
A: inactive; negative

Q: And the mutagenic call (Test System: AMES SALMONELLA TYPHIMURIUM, Strain/Indicator: TA1537, Metabolic Activation: RAT, LIVER, S-9, AROCLOR 1254, Method: STANDARD PLATE)?
A: inactive; negative

Q: What about the mutagenic call (Test System: AMES SALMONELLA TYPHIMURIUM, Strain/Indicator: TA1538, Metabolic Activation: NONE, Method: STANDARD PLATE) of the same molecule?
A: inactive; negative

Q: What about the mutagenic call (Test System: AMES SALMONELLA TYPHIMURIUM, Strain/Indicator: TA1538, Metabolic Activation: RAT, LIVER, S-9, AROCLOR 1254, Method: STANDARD PLATE) of the same molecule?
A: inactive; negative

Q: What about the mutagenic call (Test System: CHINESE HAMSTER V-79, Strain/Indicator: V-79 (HGPRT)/6-THIOGUANINE, Metabolic Activation: NONE) of the same molecule?
A: inactive; negative

Q: And the mutagenic call (Test System: CHINESE HAMSTER V-79, Strain/Indicator: V-79 (HGPRT)/6-THIOGUANINE, Metabolic Activation: RAT, LIVER, S-9, AROCLOR 1254)?
A: inactive; negative

Q: With `[CH]#[W]` as the molecule, how does the mutagenic call (End Point: IN VITRO MICRONUCLEUS, Test System: HUMAN LYMPHOCYTES, Metabolic Activation: NONE) read?
A: active; positive

Q: How did the mutagenic call [16] turn out when `CS(=O)(=O)Nc1ccc(Nc2c3ccccc3nc3ccccc23)cc1` was run?
A: active; positive

Q: Which mutagenic call [1] does the source give for `C[N+](C)(C)Cc1ccccc1` here?
A: inactive; negative

Q: What about the mutagenic call [2] of the same molecule?
A: inactive; negative

Q: And the mutagenic call [3]?
A: inactive; negative

Q: What about the mutagenic call [4] of the same molecule?
A: inactive; negative

Q: What about the mutagenic call [5] of the same molecule?
A: inactive; negative

Q: And the mutagenic call [7]?
A: inactive; negative

Q: What about the mutagenic call [8] of the same molecule?
A: inactive; negative

Q: What about the mutagenic call [9] of the same molecule?
A: inactive; negative

Q: What about the mutagenic call [11] of the same molecule?
A: inactive; negative

Q: What about the mutagenic call [13] of the same molecule?
A: inactive; negative

Q: And the mutagenic call [14]?
A: inactive; negative

Q: And the mutagenic call [15]?
A: inactive; negative

Q: Which mutagenic call (End Point: IN VITRO CHROMOSOMAL ABERRATIONS, Test System: CHO CELLS, Metabolic Activation: RAT, LIVER, S-9, AROCLOR 1254) does the source give for `Nc1ccccc1-c1ccccc1` here?
A: inactive; negative

Q: What about the mutagenic call (End Point: IN VITRO CHROMOSOMAL ABERRATIONS, Test System: CHO-WBL CELLS, Metabolic Activation: RAT, LIVER, S-9, PHENOBARBITAL AND BETA-NAPHTHOFLAVONE) of the same molecule?
A: active; positive (at 24 hr)

Q: And the mutagenic call [17]?
A: inactive; negative

Q: And the mutagenic call [2]?
A: inactive; negative

Q: And the mutagenic call [18]?
A: inactive; negative

Q: What about the mutagenic call (Test System: AMES SALMONELLA TYPHIMURIUM, Strain/Indicator: TA98, Metabolic Activation: HAMSTER, LIVER, S-9, AROCLOR 1254 (10%), Method: PREINCUBATION) of the same molecule?
A: inactive; negative

Q: What about the mutagenic call [5] of the same molecule?
A: inactive; negative

Q: What about the mutagenic call [6] of the same molecule?
A: inactive; negative

Q: And the mutagenic call (Test System: AMES SALMONELLA TYPHIMURIUM, Strain/Indicator: TA98, Metabolic Activation: RAT LIVER S-9, AROCLOR 1254, Method: PREINCUBATION)?
A: inactive; negative

Q: What about the mutagenic call (Test System: AMES SALMONELLA TYPHIMURIUM, Strain/Indicator: TA98, Metabolic Activation: RAT, LIVER, S-9, AROCLOR 1254 (4%), Method: STANDARD PLATE) of the same molecule?
A: inactive; negative

Q: What about the mutagenic call (Test System: AMES SALMONELLA TYPHIMURIUM, Strain/Indicator: TA98, Metabolic Activation: RAT, LIVER, S-9, AROCLOR 1254 (10%), Method: PREINCUBATION) of the same molecule?
A: inactive; negative

Q: What about the mutagenic call (Test System: AMES SALMONELLA TYPHIMURIUM, Strain/Indicator: TA100, Metabolic Activation: HAMSTER, LIVER, S-9, AROCLOR 1254 (10%), Method: PREINCUBATION) of the same molecule?
A: active; positive

Q: And the mutagenic call [9]?
A: inactive; negative

Q: What about the mutagenic call [10] of the same molecule?
A: inactive; negative

Q: What about the mutagenic call (Test System: AMES SALMONELLA TYPHIMURIUM, Strain/Indicator: TA100, Metabolic Activation: RAT LIVER S-9, AROCLOR 1254, Method: PREINCUBATION) of the same molecule?
A: inactive; negative

Q: What about the mutagenic call [19] of the same molecule?
A: active; positive

Q: What about the mutagenic call [20] of the same molecule?
A: inactive; negative

Q: And the mutagenic call [14]?
A: inactive; negative

Q: And the mutagenic call (Test System: AMES SALMONELLA TYPHIMURIUM, Strain/Indicator: TA1535, Metabolic Activation: RAT, LIVER, S-9, AROCLOR 1254 (10%), Method: PREINCUBATION)?
A: inactive; negative

Q: What does the source list for `O=C(CC(O)C(=O)OCCBr)OCCBr` (stereo not given)?
A: mutagenic call [6]: inactive; negative; mutagenic call [10]: inactive; negative; mutagenic call [12]: active; positive

Q: How did the mutagenic call [17] turn out when `Cc1ccc(S(=O)(=O)NC(=O)NN2CCCCCC2)cc1` was run?
A: inactive; negative

Q: And the mutagenic call (Test System: AMES SALMONELLA TYPHIMURIUM, Strain/Indicator: TA97, Metabolic Activation: HAMSTER, LIVER, S-9, AROCLOR 1254 (30%), Method: PREINCUBATION)?
A: inactive; negative

Q: What about the mutagenic call [2] of the same molecule?
A: inactive; negative

Q: And the mutagenic call (Test System: AMES SALMONELLA TYPHIMURIUM, Strain/Indicator: TA97, Metabolic Activation: RAT, LIVER, AROCLOR 1254 (30%), Method: PREINCUBATION)?
A: inactive; negative

Q: What about the mutagenic call [18] of the same molecule?
A: inactive; negative

Q: What about the mutagenic call [4] of the same molecule?
A: inactive; negative

Q: What about the mutagenic call [5] of the same molecule?
A: inactive; negative

Q: And the mutagenic call [7]?
A: inactive; negative

Q: What about the mutagenic call [8] of the same molecule?
A: inactive; negative

Q: What about the mutagenic call [9] of the same molecule?
A: inactive; negative

Q: What about the mutagenic call [19] of the same molecule?
A: inactive; negative

Q: What about the mutagenic call [20] of the same molecule?
A: inactive; negative

Q: And the mutagenic call (Test System: AMES SALMONELLA TYPHIMURIUM, Strain/Indicator: TA1535, Metabolic Activation: HAMSTER, LIVER, S-9, AROCLOR 1254 (30%), Method: PREINCUBATION)?
A: active; positive

Q: And the mutagenic call [14]?
A: inactive; negative

Q: And the mutagenic call [15]?
A: inactive; negative
